This is an account of results in patent US9051342B2 (priority 2004, dated 2015).

The structures appear in SMILES notation. Values joined by “and” are separate entries in the source; they are usually repeats but may differ in a detail not shown here. Identical values can stand only once.

Usually melting point stands for the temperature, or range, at which the solid turns liquid. `O=C(O)c1cccc(-n2cc3c(n2)-c2ccccc2C3)c1` [Compound 138, 3-(4H-Indeno[1,2-c]pyrazol-2-yl)-benzoic acid] returned a melting point of 249 to 250 °C.
Next, `O=C(O)c1cccc(-c2ncn(-c3ccc(N4CCCC4=O)cc3)n2)c1` [Compound 43, 3-{1-[4-(2-Oxo-pyrrolidin-1-yl)-phenyl]-1H-[1,2,4]triazol-3-yl}-benzoic acid]: 270 to 273 °C; `O=C(O)c1cccc(-c2cnn(-c3cccc(OC(F)F)c3)c2)c1` [Compound 172]: 179 to 181 °C.
Next, `O=C(O)c1cccc(-n2ncc3c2CCc2ccccc2-3)c1` [Compound 135, 3-(4,5-Dihydro-benzo[e]indazol-3-yl)-benzoic acid]: 273 to 275 °C; `O=C(O)c1ccc(-c2ccn(-c3cc(F)ccc3F)c2)cc1` [Compound 245, 4-[1-(2,5-Difluoro-phenyl)-1H-pyrrol-3-yl]-benzoic acid]: 215 to 218 °C.
The value for `O=C(O)c1cccc(-c2cnn(-c3ccc4c(c3)OCO4)c2)c1` [Compound 239, 3-(1-Benzo[1,3]dioxol-5-yl-1H-pyrazol-4-yl)-benzoic acid] was 221 to 223 °C; that for `COc1cccc2c1CCc1cn(-c3ccc(C(=O)O)cc3)nc1-2` [Compound 148, 4-(6-Methoxy-4,5-dihydro-benzo[g]indazol-2-yl)-benzoic acid] was 288 to 290 °C; that for `O=C(O)c1ccc(-n2cc(-c3ccccn3)cn2)cc1` [Compound 114, 4-(4-Pyridin-2-yl-pyrazol-1-yl)-benzoic acid] was 260 to 262 °C.
As for `COc1ccccc1-n1ccc(-c2cccc(C(=O)O)c2)c1` [Compound 200, 3-[1-(2-Methoxy-phenyl)-1H-pyrrol-3-yl]-benzoic acid], the melting point is above 350 °C.
Next, `COc1ccc2c(c1)-c1nn(-c3ccc(C(=O)O)cc3)cc1CC2` [Compound 145, 4-(8-Methoxy-4,5-dihydro-benzo[g]indazol-2-yl)-benzoic acid]: 290 to 292 °C; `Cc1ccc(-n2ccc(-c3cccc(C(=O)O)c3)c2)cc1F` [Compound 241, 3-[1-(3-Fluoro-4-methyl-phenyl)-1H-pyrrol-3-yl]-benzoic acid]: 205 to 208 °C; `Cc1ccc(-n2cc(-c3ccc(C(=O)O)cc3)cn2)cc1C` [Compound 238, 4-[1-(3,4-Dimethyl-phenyl)-1H-pyrazol-4-yl]-benzoic acid]: 254 to 256 °C.
In the case of `O=C(O)c1cccc(-c2ccn(-c3ccc(O)cc3)n2)c1` [Compound 74, 3-[1-(4-Hydroxy-phenyl)-1H-pyrazol-3-yl]-benzoic acid], the melting point lay within 228 to 230 °C.
In the case of `O=C(O)c1cccc(-c2cnn(-c3cccc(OC(F)(F)F)c3)c2)c1` [Compound 223, 3-[1-(3-Trifluoromethoxy-phenyl)-1H-pyrazol-4-yl]-benzoic acid], the melting point lay in the range of 143 to 145 °C.
The value for `O=C(O)c1cccc(-n2cc(-c3ccc(F)cc3F)cn2)c1` [Compound 103, 3-[4-(2,4-Difluoro-phenyl)-pyrazol-1-yl]-benzoic acid] was 283 to 285 °C; that for `O=C(O)c1ccc(-c2ccn(-c3ccc4c(c3)OCCO4)c2)cc1` [Compound 150, 4-[1-(2,3-Dihydro-benzo[1,4]dioxin-6-yl)-1H-pyrrol-3-yl]-benzoic acid] was 273 to 276 °C.
The value for `O=C(O)c1cccc(-c2cnn(-c3ccc(F)cc3F)c2)c1` [Compound 179, 3-[1-(2,4-Difluoro-phenyl)-1H-pyrazol-4-yl]-benzoic acid] was 200 to 202 °C.
In turn, `O=C(O)c1cccc(-n2ccc(-c3ccc(OC(F)(F)F)cc3)n2)c1` [Compound 95, 3-[3-(4-Trifluoromethoxy-phenyl)-pyrazol-1-yl]-benzoic acid] returned a melting point of 191 to 194 °C.
Take `CC(=O)c1ccc(-n2ccc(-c3ccc(C(=O)O)cc3)n2)cc1` [Compound 256, 4-[1-(4-Acetyl-phenyl)-1H-pyrazol-3-yl]-benzoic acid]: the melting point is 278 to 279 °C.
The value for `COc1ccc(-n2cc(-c3cccc(C(=O)O)c3)cn2)cc1` [Compound 97] was 225 to 227 °C and 223 to 225 °C.
Next, `O=C(O)c1cccc(-n2cc(-c3cnccn3)cn2)c1` [Compound 119, 3-(4-Pyrazin-2-yl-pyrazol-1-yl)-benzoic acid]: 310 to 311 °C; `Cc1ccc(-n2ccc(-c3ccc(C(=O)O)cc3)c2)cc1F` [Compound 244, 4-[1-(3-Fluoro-4-methyl-phenyl)-1H-pyrrol-3-yl]-benzoic acid]: 264 to 268 °C.
The value for `O=C(O)c1ccc(-c2ccn(-c3ccccc3OC(F)(F)F)c2)cc1` [Compound 199, 4-[1-(2-Trifluoromethoxy-phenyl)-1H-pyrrol-3-yl]-benzoic acid] was 164 to 165 °C.
With `CC(C)c1ccc(-c2ccc(-n3cnc(-c4cccc(C(=O)O)c4)n3)cc2)cc1` [Compound 28, 3-[1-(4′-Isopropyl-biphenyl-4-yl)-1H-[1,2,4]triazol-3-yl]-benzoic acid], the melting point is 225 to 228 °C.
The value for `O=C(O)c1ccc(-n2cc(-c3ccc([N+](=O)[O-])cc3)cn2)cc1` [Compound 102, 4-[4-(4-Nitro-phenyl)-pyrazol-1-yl]-benzoic acid] was 276 to 277 °C; that for `CC(C)c1ccc(-c2nn(-c3cccc(C(=O)O)c3)c(=O)s2)cc1` [Compound 284, 3-[5-(4-Isopropyl-phenyl)-2-oxo-[1,3,4]thiadiazol-3-yl]-benzoic acid] was 220 to 221 °C.
The value for `O=C(O)c1cccc(-n2cc(-c3ccccn3)cn2)c1` [Compound 113, 3-(4-Pyridin-2-yl-pyrazol-1-yl)-benzoic acid] was 243 to 245 °C.
The value for `O=C(O)c1ccc(-c2ccn(-c3ccc(OC(F)(F)F)cc3)c2)cc1` [Compound 131, 4-[1-(4-Trifluoromethoxy-phenyl)-1H-pyrrol-3-yl]-benzoic acid] was 318 to 320 °C; that for `O=C(O)c1ccc(-c2cnn(-c3ccc(OC(F)(F)F)cc3)c2)cc1` [Compound 134, 4-[1-(4-Trifluoromethoxy-phenyl)-1H-pyrazol-4-yl]-benzoic acid] was 246 to 248 °C.
`O=C(O)c1cccc(-n2cc3c(n2)-c2cccc(OC(F)F)c2C3)c1` [Compound 185, 3-(5-Difluoromethoxy-4H-indeno[1,2-c]pyrazol-2-yl)-benzoic acid] came in with a melting point of 240 to 241 °C.
The value for `O=C(O)c1cccc(-c2ccn(-c3ccc(C(F)(F)F)cc3)n2)c1` [Compound 67, 3-[1-(4-Trifluoromethyl-phenyl)-1H-pyrazol-3-yl]-benzoic acid] was 225 to 227 °C; that for `O=C(O)c1cccc(-n2cnc(-c3ccc(OCc4ccccc4)cc3)n2)c1` [Compound 10, 3-[3-(4-Benzyloxy-phenyl)-[1,2,4]triazol-1-yl]-benzoic acid] was 259 to 261 °C; that for `O=C(O)c1ccc(-c2ccn(-c3cccc(C(F)(F)F)c3)c2)cc1` [Compound 128, 4-[1-(3-Trifluoromethyl-phenyl)-1H-pyrrol-3-yl]-benzoic acid] was 209 to 211 °C.
